Results: article PMC6631349 (Xenobiotica; the fate of foreign compounds in biological …, 2014)

How the values were obtained:
UGT isoforms = experiment: Initial screening towards all UGT isoforms; format: biochemical, human; conditions: about 50 μM; isoforms not given
UGT1A8 = molecular target: T1, UGT1A8 (Homo sapiens, UniProt Q9HAW9)
T1 sequence (Q9HAW9 26-530): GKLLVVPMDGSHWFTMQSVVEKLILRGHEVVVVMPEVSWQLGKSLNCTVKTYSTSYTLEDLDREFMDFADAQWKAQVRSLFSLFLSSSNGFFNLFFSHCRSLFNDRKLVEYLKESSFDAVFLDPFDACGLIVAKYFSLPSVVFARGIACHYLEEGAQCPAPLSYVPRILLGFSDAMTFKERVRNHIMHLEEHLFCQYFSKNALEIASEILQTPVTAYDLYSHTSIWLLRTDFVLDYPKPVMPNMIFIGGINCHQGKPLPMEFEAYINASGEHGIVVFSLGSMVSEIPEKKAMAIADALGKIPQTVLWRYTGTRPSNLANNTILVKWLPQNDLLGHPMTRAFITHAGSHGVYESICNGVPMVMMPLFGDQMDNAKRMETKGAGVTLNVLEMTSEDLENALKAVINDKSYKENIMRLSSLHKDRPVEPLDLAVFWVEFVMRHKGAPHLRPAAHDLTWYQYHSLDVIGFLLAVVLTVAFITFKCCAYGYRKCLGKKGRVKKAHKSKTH

UGT1A9 = molecular target: T2, UGT1A9 (Homo sapiens, UniProt O60656); experiment: UGT1A9 supersomes-catalyzed 4-MU glucuronidation inhibition; conditions: 50 μM LPC components; recombinant human UGT; mean of triplicate
T2 sequence (O60656 26-530): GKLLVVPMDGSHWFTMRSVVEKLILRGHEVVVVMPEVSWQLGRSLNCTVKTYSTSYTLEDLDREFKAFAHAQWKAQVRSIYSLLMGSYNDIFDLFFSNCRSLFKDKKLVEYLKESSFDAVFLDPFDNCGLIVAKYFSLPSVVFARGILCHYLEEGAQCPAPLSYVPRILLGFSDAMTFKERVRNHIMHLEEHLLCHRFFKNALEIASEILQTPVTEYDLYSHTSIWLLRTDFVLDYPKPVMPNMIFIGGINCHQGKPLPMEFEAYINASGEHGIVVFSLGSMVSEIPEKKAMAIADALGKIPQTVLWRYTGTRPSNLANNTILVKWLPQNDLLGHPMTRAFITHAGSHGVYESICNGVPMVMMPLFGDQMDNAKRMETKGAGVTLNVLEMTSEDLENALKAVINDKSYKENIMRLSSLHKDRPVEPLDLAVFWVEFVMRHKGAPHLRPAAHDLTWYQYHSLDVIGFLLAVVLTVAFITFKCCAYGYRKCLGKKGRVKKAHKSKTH

UGT1A6 = molecular target: T3, UGT1A6 (Homo sapiens, UniProt P19224)
T3 sequence (P19224 27-532): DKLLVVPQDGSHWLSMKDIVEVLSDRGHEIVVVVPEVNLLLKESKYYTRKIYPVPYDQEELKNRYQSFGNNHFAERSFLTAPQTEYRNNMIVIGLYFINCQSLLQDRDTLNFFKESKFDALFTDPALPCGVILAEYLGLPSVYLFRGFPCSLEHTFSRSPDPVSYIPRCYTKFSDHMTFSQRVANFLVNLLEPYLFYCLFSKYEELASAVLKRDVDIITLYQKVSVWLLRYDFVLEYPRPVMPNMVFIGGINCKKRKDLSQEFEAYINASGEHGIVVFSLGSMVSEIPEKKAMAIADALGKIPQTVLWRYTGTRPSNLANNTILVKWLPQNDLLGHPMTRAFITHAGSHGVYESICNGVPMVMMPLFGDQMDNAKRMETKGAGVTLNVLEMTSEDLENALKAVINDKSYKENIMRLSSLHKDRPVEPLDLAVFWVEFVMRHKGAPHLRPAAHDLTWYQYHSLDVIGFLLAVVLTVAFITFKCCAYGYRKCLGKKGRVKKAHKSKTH

[1] = 50 μM LPC components, recombinant human UGT, mean of triplicate
[2] = Dixon and Lineweaver-Burk plots, 4-MU glucuronidation

**Q.** What does the source list for `CCCCCCCCCCCCCCCCCC(=O)OC[C@@H](O)COP(=O)([O-])OCC[N+](C)(C)C` [LPC 18:0]?
**A.** inhibition of activity of UGT isoforms (UGT isoforms): more than 90%; residual activity 1A8 (UGT1A8; [1]): 1.2%; inhibition kinetic type towards UGT1A8 (UGT1A8; [2]): competitive inhibition; residual activity 1A9 (UGT1A9): 64.4%; residual activity 1A6 (UGT1A6; [1]): 4.3%; inhibition kinetic type towards UGT1A6 (UGT1A6; [2]): non-competitively inhibited
